Key:
[1] = Fluorescence response to NO in buffered aqueous solution; details: for fluorescence on reaction with NO-releasing agent SNAP: pH 7.0 (50 mM PIPES, 100 mM KCl), 30 min time interval
Procedure: FIG. 5 depicts the fluorescence response of Cu(FL5) to NO. Fluorescence emission spectra (λex=503 nm) of a deoxygenated 1 μM solution of Cu(FL5) in buffered solution (50 mM PIPES, pH 7.0, 100 mM KCl) before (dashed line), immediately, 1, 2 and 5 min after (solid lines) admission of 1300 equiv of NO (g) at 37° C.
The fluorescence of a 1 μM FL5 solution was diminished by 18±3% upon introduction of an equimolar quantity of CuCl2 at 37° C. Addition of excess NO to a buffered aqueous Cu(FL5) solution led to an immediate 11.2±1.5-fold increase in fluorescence (FIG. 5). […] The lower detection limit for NO is 5 nM.
A commercially available NO probe, DAF-2 (o-diaminofluorescein), was used for comparison with Cu(FL5). The fluorescence of DAF-2 is unchanged in the presence of NO and the absence of O2 over a period of 1 h.
As depicted in FIG. 4, NO detection by Cu(FL5) occurs, formally, by nitric oxide-induced reduction of Cu(II) to Cu(I), forming NO^+, which nitrosates the ligand with concomitant dissociation from copper and fluorescence turn-on. The mechanism of turn-on emission of Cu(FL5) by NO was investigated by EPR, UV-vis, NMR and fluorescence spectroscopy and by liquid chromatography-mass spectrometry (LC-MS, low resolution MS).

[2] = system: SK-N-SH human neuroblastoma cells; experiment: Detection of NO produced by cNOS in SK-N-SH cells (fluorescence imaging); format: cell-based
Procedure: FIG. 7 illustrates Cu(FL5) detection of NO produced by cNOS. (a) NO detection in SK-N-SH cells by Cu(FL5). Left to right: 25 min incubation of Cu(FL5) (1 μM) and 5, 10, 15, 25 min after co-treatment of Cu(FL5) (1 μM) and 17β-estradiol (100 nM). Images were taken with a Nikon Eclipse TS100 microscope after removing the DMEM media and washing the cells with PBS. Top: fluorescence images; bottom: phase contrast images. (b) Fluorescence intensity (F(t)/FCu(FL5)) from a was plotted against incubation time. (c) NO production with or without of L-NNA. Right: NO detection in cells after 10 min co-incubation of Cu(FL5) (1 μM) and 17β-estradiol (100 nM). Left: NO detection in cells pre-treated with L-NNA for 1 h before addition of Cu(FL5) and 17β-estradiol.
We investigated the ability of Cu(FL5) to detect NO produced in SK-N-SH human neuroblastoma cells under physiological conditions, since constitutive NO synthase (“cNOS”) in this cell line can be activated by estrogen to produce NO. Estrogen administration leads to an increase in the cytosolic Ca(II) concentration that alters the structure of calmodulin, which in turn activates cNOS. The NO-dependent fluorescence response, monitored after simultaneous administration of 17β-estradiol (100 nM) and Cu(FL5) (1 μM) to the cells, was completed within 5 min with a 4.0±0.6-fold increase in fluorescence (FIGS. 5a and b). […] As another control, HeLa cells were co-treated with 17β-estradiol (100 nM) and Cu(FL5) (1 μM).
Raw 264.7, SK-N-SH, and HeLa cells were purchased from the American Type Culture Collection (ATCC). All three cell lines were maintained in Dulbecco's modified Eagles' media (DMEM) (GibcoBRL) containing 10% (v/v) heat-inactivated fetal bovine serum (FBS) (HyClone), 1 mM sodium pyruvate (Sigma), 100 units/ml penicillin, 100 μg/ml streptomycin (Invitrogen), and 0.1 mM nonessential amino acid solution for minimal essential medium (Sigma). All cells were grown at 37° C. in a humidified atmosphere of 10% CO2. A nitrite assay was performed with Griess reagents (Promega) on Raw 264.7 cells grown in DMEM free of phenol red. Calcium sensor fluo-4 AM was purchased from Invitrogen. MTT [3-(4,5-dimethylthiazol-2-yl)-2,5-diphenyltetrazolium bromide] (Sigma-Aldrich) assay was described in Supplementary information. The expression of iNOS in Raw 264.7 cells was analyzed by Western blot on the extracts of cells stimulated by LPS and INF-γ. The protein was silenced by short hairpin RNA-induced RNAi and the resulting cell lines were used in fluorescence imaging by Cu(FL5).

[3] = system: Raw 264.7 murine macrophage cells; experiment: Detection of NO produced by iNOS in Raw 264.7 cells (fluorescence imaging); format: cell-based
Procedure: FIG. 8 illustrates Cu(FL5) detection of NO produced by iNOS. (a) NO detection in Raw 264.7 macrophage cells by Cu(FL5). Left to right: Cu(FL5) (1 μM) incubation with cells for 12 h, and 2, 4, 6, 8 h after addition of Cu(FL5) into cells that were pre-stimulated for 4 h with LPS (500 ng mL^−1) and IFN-γ (250 U mL^−1). The times depicted in the figure are the total incubation times with Cu(FL5). Images were taken immediately after removing the media and washing the cells three times with PBS. The instrument used was a Zeiss Axiovert 200M inverted epifluorescence microscope with differential interference contrast (DIC). Top: fluorescence images; bottom: DIC images. (b) Silencing of iNOS by RNAi in Raw 264.7 cells. A plasmid expressing shRNA was constructed to target the mRNA of iNOS. It was transfected into cells. The plasmid vector without insert for RNAi was transfected to establish a control cell line. The expression of iNOS in these two cell lines after stimulated by LPS and IFN-γ for 12 h was investigated by Western blot on the whole cell extracts with antibodies against the protein and actin, which served as loading control (lane 1: cells with control plasmid vector, lane 2: cells with plasmid expressing shRNA for iNOS). (c) NO detection in Raw 264.7 cells with iNOS silenced by RNAi. The two lines in (b) were treated with LPS and IFN-γ for 4 h before 8 h of incubation with Cu(FL5).
In macrophages, nitric oxide is produced by inducible NO synthases (“iNOS”). […] This method colorimetrically determines the concentration of NO2^− resulting from NO oxidation in the extracellular space. Fluorescence detection of NO production by stimulated macrophage cells was also achieved by incubation of the extracellular fluid with DAN and DAFs. These dyes improved the sensitivity of Griess assay, but were unable to reveal NO production inside cells with spatial and temporal fidelity. The present Cu(FL5) construct, however, readily detects NO produced in activated Raw 264.7 cells by fluorescence turn-on. Macrophage cells were incubated with LPS (500 ng/mL) and IFN-γ (250 U/mL) for 4 h, after which 1 μM Cu(FL5) was applied. The fluorescence response was monitored at 2 h intervals by microscopy (FIG. 6a).
To investigate further the origin of fluorescence detected by Cu(FL5), iNOS was silenced in Raw 264.7 cells by short hairpin RNA (shRNA)-induced RNA interference (RNAi) (FIG. 6b).
Raw 264.7, SK-N-SH, and HeLa cells were purchased from the American Type Culture Collection (ATCC). […] The expression of iNOS in Raw 264.7 cells was analyzed by Western blot on the extracts of cells stimulated by LPS and INF-γ. The protein was silenced by short hairpin RNA-induced RNAi and the resulting cell lines were used in fluorescence imaging by Cu(FL5).

| SMILES | fluorescence response to NO under both anaerobic and aerobic conditions [1] | lower detection limit for NO [1] | increase in fluorescence upon addition of excess NO ([1]; buffered aqueous solution, immediate) | increase in fluorescence upon addition of NO in the presence of excess EDTA ([1]; excess EDTA chelating Cu(II)) | fluorescence on reaction with NO-releasing agent SNAP [1] | fluorescence on reaction with NO-releasing agent SNAP ([1]; listed as Cu(II)(FL5)) | increase in fluorescence in SK-N-SH cells ([2]; 17β-estradiol (100 nM) and Cu(FL5) (1 μM) administered simultaneously) | time to complete fluorescence response in SK-N-SH cells ([2]; 17β-estradiol (100 nM), probe 1 μM) | fluorescence response in presence of cNOS inhibitor L-NNA ([2]; 17β-estradiol-stimulated SK-N-SH cells) | fluorescence enhancement in living cells, both cNOS and iNOS ([2]; both cell lines (Raw 264.7 and SK-N-SH)) | brightness of NO visualization compared with DAF-2 DA ([2]; estradiol-stimulated neuroblastoma cells) | average fluorescence in activated Raw 264.7 cells ([3]; LPS (500 ng/mL) and IFN-γ (250 U/mL) 4 h, then 1 μM Cu(FL5), monitored at 2 h intervals) | fluorescence response in Raw 264.7 cells with iNOS silenced by shRNA vs plasmid vector only ([3]; stimulated by LPS and IFN-γ) | fluorescence response in stimulated Raw 264.7 cells in presence of iNOS inhibitor L-NMA ([3]; vs absence of L-NMA) | increase in fluorescence when treated with excess NO over 30 min ([1]; control: no Cu(II), over 30 min) | fluorescence in stimulated SK-N-SH cells in the absence of Cu(II) ion ([2]; over a period of 25 min) | turn-on fluorescence emission in stimulated Raw 264.7 cells without Cu(II) ion ([3]; LPS and IFN-γ, 12 h incubation period) |
| --- | --- | --- | --- | --- | --- | --- | --- | --- | --- | --- | --- | --- | --- | --- | --- | --- | --- |
| Cc1ccc2cccc(NCc3c([O][Cu][Cl])ccc4c(-c5ccccc5C(=O)O)c5cc(Cl)c(=O)cc-5oc34)c2n1 [Cu(FL5)] | immediate fluorescence response | 5 nM | 11.2±1.5 fold | 1.3±0.2 fold | enhanced | turn-on fluorescence | 4.0±0.6 fold | ≤ 5 min | notably weaker fluorescence response | > 4 fold | brighter fluorescence than DAF-2 DA | slowly increased over 12 h | much weaker fluorescence response | notably weaker fluorescence response |  |  |  |
| Cc1ccc2cccc(NCc3c(O)ccc4c(-c5ccccc5C(=O)O)c5cc(Cl)c(=O)cc-5oc34)c2n1 [FL5, 2-{2-chloro-6-hydroxy-5-[(2-methyl-quinolin-8-ylamino)-methyl]-3-oxo-3H-xanthen-9-yl}-benzoic acid] |  |  |  |  |  |  |  |  |  |  |  |  |  |  | 1.5±0.2 fold | no fluorescence increase | not observed |
